In US7820623B2 (priority 2006, dated 2010):
Like-named read-outs stand apart in the source and are kept apart here. Bridge positions count the residues as written; N and C are the ends. Square brackets hold non-standard residues; d marks the D form. Peptide text beside a SMILES is read from it. 1Nal = N[C@@H](Cc1cccc2ccccc12)C(=O)O

Columns and labels:
[1] = test system: thapsigargin-induced IFN-g production in human whole blood; assay type: cell-based
[2] = test system: thapsigargin-induced IL-2 production in human whole blood
[3] = read-out: Analogue Activity (IC50) WB/IFNg
[4] = read-out: Analogue Activity (IC50) WB/IL-2

Row | Compound | IC50 [1, 3] [nM] | IC50 [2, 4] [nM] | IC50 ([1]; read-out: Average IC50 IFNg) [nM] | IC50 ([2]; read-out: Average IC50 IL-2) [nM]
1 | CC[C@H](C)[C@@H]1NC(=O)[C@H](CCCCN)NC(=O)[C@@H](NC(=O)[C@H](CCCCN)NC(=O)[C@@H](NC(=O)[C@H](CC(N)=O)NC(=O)[C@H](C)NC(=O)[C@@H](NC(=O)[C@@H](NC(=O)CN)C(C)C)[C@@H](C)CC)C(C)C)CSSC[C@@H]2NC(=O)[C@H](CCCCN)NC(=O)CNC(=O)[C@H](Cc3ccccc3)NC(=O)[C@H](CCCNC(=N)N)NC(=O)[C@H](CCSC)NC(=O)CNC(=O)[C@H](C)NC(=O)[C@H](CCCCN)NC(=O)[C@H](CCCCN)NC(=O)[C@@H]3CSSC[C@@H](C(=O)N[C@H](C(=O)N4CCC[C@H]4C(=O)N[C@@H](CCCCN)C(=O)O)[C@@H](C)O)NC(=O)[C@H](Cc4c[nH]cn4)NC(=O)[C@H](CSSC[C@H](NC(=O)[C@H](CCC(N)=O)NC(=O)[C@H](CCCNC(=N)N)NC(=O)[C@H](CO)NC1=O)C(=O)N[C@@H](CC(C)C)C(=O)N[C@@H](CCC(=O)O)C(=O)N1CCC[C@H]1C(=O)N3)NC(=O)[C@H](CCCCN)NC(=O)CNC(=O)[C@H](CC(N)=O)NC(=O)[C@H](CCSC)NC2=O [I4A] (H-GVIANVKCKISRQCLEPCKKAGMRFGKCMNGKCHCTPK-OH; disulfide 8-28, 14-33, 18-35) | 0.0873 | 0.111 |  | 
2 | CC[C@H](C)[C@@H]1NC(=O)[C@H](CCCCN)NC(=O)[C@@H](NC(=O)[C@H](CCCCN)NC(=O)[C@@H](NC(=O)[C@H](CC(N)=O)NC(=O)[C@@H](NC(=O)[C@@H](NC(=O)[C@@H](NC(=O)CN)C(C)C)[C@@H](C)CC)[C@@H](C)CC)C(C)C)CSSC[C@@H]2NC(=O)[C@H](CCCCN)NC(=O)CNC(=O)[C@H](Cc3ccccc3)NC(=O)[C@H](CCCNC(=N)N)NC(=O)[C@H](CCSC)NC(=O)CNC(=O)[C@H](C)NC(=O)[C@H](CCCCN)NC(=O)[C@H](CCCCN)NC(=O)[C@@H]3CSSC[C@@H](C(=O)N[C@H](C(=O)N4CCC[C@H]4C(=O)N[C@@H](CCCCN)C(=O)O)[C@@H](C)O)NC(=O)[C@H](Cc4c[nH]cn4)NC(=O)[C@H](CSSC[C@H](NC(=O)[C@H](CCCNC(=N)N)NC(=O)[C@H](CCCNC(=N)N)NC(=O)[C@H](CO)NC1=O)C(=O)N[C@@H](CC(C)C)C(=O)N[C@@H](CCC(=O)O)C(=O)N1CCC[C@H]1C(=O)N3)NC(=O)[C@H](CCCCN)NC(=O)CNC(=O)[C@H](CC(N)=O)NC(=O)[C@H](CCSC)NC2=O [Q13R] (H-GVIINVKCKISRRCLEPCKKAGMRFGKCMNGKCHCTPK-OH; disulfide 8-28, 14-33, 18-35) | 0.172 | 0.16 |  | 
3 | CC[C@H](C)[C@@H]1NC(=O)[C@H](CCCCN)NC(=O)[C@@H](NC(=O)[C@H](CCCCN)NC(=O)[C@@H](NC(=O)[C@H](CC(N)=O)NC(=O)[C@@H](NC(=O)[C@H](CCC(=O)O)NC(=O)[C@@H](NC(=O)CN)C(C)C)[C@@H](C)CC)C(C)C)CSSC[C@@H]2NC(=O)[C@H](CCCCN)NC(=O)CNC(=O)[C@H](Cc3ccccc3)NC(=O)[C@H](CCCNC(=N)N)NC(=O)[C@H](CCSC)NC(=O)CNC(=O)[C@H](C)NC(=O)[C@H](CCCCN)NC(=O)[C@H](CCCCN)NC(=O)[C@@H]3CSSC[C@@H](C(=O)N[C@H](C(=O)N4CCC[C@H]4C(=O)N[C@@H](CCCCN)C(=O)O)[C@@H](C)O)NC(=O)[C@H](Cc4c[nH]cn4)NC(=O)[C@H](CSSC[C@H](NC(=O)[C@H](CCC(N)=O)NC(=O)[C@H](CCCNC(=N)N)NC(=O)[C@H](CO)NC1=O)C(=O)N[C@@H](CC(C)C)C(=O)N[C@@H](CCC(=O)O)C(=O)N1CCC[C@H]1C(=O)N3)NC(=O)[C@H](CCCCN)NC(=O)CNC(=O)[C@H](CC(N)=O)NC(=O)[C@H](CCSC)NC2=O [I3E] (H-GVEINVKCKISRQCLEPCKKAGMRFGKCMNGKCHCTPK-OH; disulfide 8-28, 14-33, 18-35) | 0.16 | 0.12 |  | 
4 | GVIINVKCKASRQCLEPCKKAGMRFGKCMNGKCHCTPK [Ala-10 (SEQ ID No: 1408)] |  |  | 0.0296 | 0.05
5 | CC[C@H](C)[C@@H]1NC(=O)[C@H](CCCCN)NC(=O)[C@@H](NC(=O)[C@H](CCCCN)NC(=O)[C@@H](NC(=O)[C@H](CC(N)=O)NC(=O)[C@H](Cc2cccc3ccccc23)NC(=O)[C@@H](NC(=O)[C@@H](NC(=O)CN)C(C)C)[C@@H](C)CC)C(C)C)CSSC[C@@H]2NC(=O)[C@H](CCCCN)NC(=O)CNC(=O)[C@H](Cc3ccccc3)NC(=O)[C@H](CCCNC(=N)N)NC(=O)[C@H](CCSC)NC(=O)CNC(=O)[C@H](C)NC(=O)[C@H](CCCCN)NC(=O)[C@H](CCCCN)NC(=O)[C@@H]3CSSC[C@@H](C(=O)N[C@H](C(=O)N4CCC[C@H]4C(=O)N[C@@H](CCCCN)C(=O)O)[C@@H](C)O)NC(=O)[C@H](Cc4c[nH]cn4)NC(=O)[C@H](CSSC[C@H](NC(=O)[C@H](CCC(N)=O)NC(=O)[C@H](CCCNC(=N)N)NC(=O)[C@H](CO)NC1=O)C(=O)N[C@@H](CC(C)C)C(=O)N[C@@H](CCC(=O)O)C(=O)N1CCC[C@H]1C(=O)N3)NC(=O)[C@H](CCCCN)NC(=O)CNC(=O)[C@H](CC(N)=O)NC(=O)[C@H](CCSC)NC2=O [I4Nal] (H-GVI[1Nal]NVKCKISRQCLEPCKKAGMRFGKCMNGKCHCTPK-OH; disulfide 8-28, 14-33, 18-35) | 1.01 | 1.09 |  | 
6 | CC[C@H](C)[C@@H]1NC(=O)[C@H](CCCCN)NC(=O)[C@@H](NC(=O)[C@H](CCCCN)NC(=O)[C@@H](NC(=O)[C@H](CC(N)=O)NC(=O)[C@@H](NC(=O)[C@@H](NC(=O)[C@@H](NC(=O)CN)C(C)C)[C@@H](C)CC)[C@@H](C)CC)C(C)C)CSSC[C@@H]2NC(=O)[C@H](CCCCN)NC(=O)CNC(=O)[C@H](Cc3ccccc3)NC(=O)[C@H](CCCNC(=N)N)NC(=O)[C@H](CCSC)NC(=O)CNC(=O)[C@H](C)NC(=O)[C@H](CCCCN)NC(=O)[C@H](CCCNC(=N)N)NC(=O)[C@@H]3CSSC[C@@H](C(=O)N[C@H](C(=O)N4CCC[C@H]4C(=O)N[C@@H](CCCCN)C(=O)O)[C@@H](C)O)NC(=O)[C@H](Cc4c[nH]cn4)NC(=O)[C@H](CSSC[C@H](NC(=O)[C@H](CCC(N)=O)NC(=O)[C@H](CCCNC(=N)N)NC(=O)[C@H](CO)NC1=O)C(=O)N[C@@H](CC(C)C)C(=O)N[C@@H](CCC(=O)O)C(=O)N1CCC[C@H]1C(=O)N3)NC(=O)[C@H](CCCCN)NC(=O)CNC(=O)[C@H](CC(N)=O)NC(=O)[C@H](CCSC)NC2=O [K19R] (H-GVIINVKCKISRQCLEPCRKAGMRFGKCMNGKCHCTPK-OH; disulfide 8-28, 14-33, 18-35) | 0.062 | 0.044 |  | 
7 | CC[C@H](C)[C@@H]1NC(=O)[C@H](CCCCN)NC(=O)[C@@H](NC(=O)[C@H](CCCCN)NC(=O)[C@@H](NC(=O)[C@H](CC(N)=O)NC(=O)[C@@H](NC(=O)[C@@H](NC(=O)[C@@H](NC(=O)[C@@H](N)CCC(=O)O)C(C)C)[C@@H](C)CC)[C@@H](C)CC)C(C)C)CSSC[C@@H]2NC(=O)[C@H](CCCCN)NC(=O)CNC(=O)[C@H](Cc3ccccc3)NC(=O)[C@H](CCCNC(=N)N)NC(=O)[C@H](CCSC)NC(=O)CNC(=O)[C@H](C)NC(=O)[C@H](CCCCN)NC(=O)[C@H](CCCCN)NC(=O)[C@@H]3CSSC[C@@H](C(=O)N[C@H](C(=O)N4CCC[C@H]4C(=O)N[C@@H](CCCCN)C(=O)O)[C@@H](C)O)NC(=O)[C@H](Cc4c[nH]cn4)NC(=O)[C@H](CSSC[C@H](NC(=O)[C@H](CCC(N)=O)NC(=O)[C@H](CCCNC(=N)N)NC(=O)[C@H](CO)NC1=O)C(=O)N[C@@H](CC(C)C)C(=O)N[C@@H](CCC(=O)O)C(=O)N1CCC[C@H]1C(=O)N3)NC(=O)[C@H](CCCCN)NC(=O)CNC(=O)[C@H](CC(N)=O)NC(=O)[C@H](CCSC)NC2=O [G1E] (H-EVIINVKCKISRQCLEPCKKAGMRFGKCMNGKCHCTPK-OH; disulfide 8-28, 14-33, 18-35) | 1.25 | 1.22 |  | 
8 | CC[C@H](C)[C@@H]1NC(=O)[C@H](CCCCN)NC(=O)[C@@H](NC(=O)[C@H](CCCCN)NC(=O)[C@@H](NC(=O)[C@H](C)NC(=O)[C@@H](NC(=O)[C@@H](NC(=O)[C@@H](NC(=O)CN)C(C)C)[C@@H](C)CC)[C@@H](C)CC)C(C)C)CSSC[C@@H]2NC(=O)[C@H](CCCCN)NC(=O)CNC(=O)[C@H](Cc3ccccc3)NC(=O)[C@H](CCCNC(=N)N)NC(=O)[C@H](CCSC)NC(=O)CNC(=O)[C@H](C)NC(=O)[C@H](CCCCN)NC(=O)[C@H](CCCCN)NC(=O)[C@@H]3CSSC[C@@H](C(=O)N[C@H](C(=O)N4CCC[C@H]4C(=O)N[C@@H](CCCCN)C(=O)O)[C@@H](C)O)NC(=O)[C@H](Cc4c[nH]cn4)NC(=O)[C@H](CSSC[C@H](NC(=O)[C@H](CCC(N)=O)NC(=O)[C@H](CCCNC(=N)N)NC(=O)[C@H](CO)NC1=O)C(=O)N[C@@H](CC(C)C)C(=O)N[C@@H](CCC(=O)O)C(=O)N1CCC[C@H]1C(=O)N3)NC(=O)[C@H](CCCCN)NC(=O)CNC(=O)[C@H](CC(N)=O)NC(=O)[C@H](CCSC)NC2=O [N5A] (H-GVIIAVKCKISRQCLEPCKKAGMRFGKCMNGKCHCTPK-OH; disulfide 8-28, 14-33, 18-35) | 0.067 | 0.0679 |  | 
9 | GVIINVKCKISAQCLEPCKKAGMRFGKCMNGKCHCTPK [Ala-12 (SEQ ID No: 1410)] |  |  | 0.155 | 0.123
10 | CC[C@H](C)[C@@H]1NC(=O)[C@H](CCCCN)NC(=O)[C@@H](NC(=O)[C@H](CCCCN)NC(=O)[C@@H](NC(=O)[C@H](CC(N)=O)NC(=O)[C@@H](NC(=O)[C@@H](NC(=O)[C@@H](NC(=O)CN)C(C)C)[C@@H](C)CC)[C@@H](C)CC)C(C)C)CSSC[C@@H]2NC(=O)[C@H](CCCCN)NC(=O)CNC(=O)[C@H](Cc3ccccc3)NC(=O)[C@H](CCCNC(=N)N)NC(=O)[C@H](CCSC)NC(=O)CNC(=O)[C@H](C)NC(=O)[C@H](CCCCN)NC(=O)[C@H](CCCCN)NC(=O)[C@@H]3CSSC[C@@H](C(=O)N[C@H](C(=O)N4CCC[C@H]4C(=O)N[C@@H](CCCCN)C(=O)O)[C@@H](C)O)NC(=O)[C@H](Cc4c[nH]cn4)NC(=O)[C@H](CSSC[C@H](NC(=O)[C@H](CCC(N)=O)NC(=O)[C@H](CCCNC(=N)N)NC(=O)[C@H](C)NC1=O)C(=O)N[C@@H](CC(C)C)C(=O)N[C@@H](CCC(=O)O)C(=O)N1CCC[C@H]1C(=O)N3)NC(=O)[C@H](CCCCN)NC(=O)CNC(=O)[C@H](CC(N)=O)NC(=O)[C@H](CCSC)NC2=O [S11A] (H-GVIINVKCKIARQCLEPCKKAGMRFGKCMNGKCHCTPK-OH; disulfide 8-28, 14-33, 18-35) | 0.11 | 0.09 |  | 
